Source: ChEMBL document CHEMBL4330101, “Identification of BR101549 as a lead candidate of non-TZD PPARγ agonist for the treatment of type 2 diabetes: Proof-of-concept evaluation and SAR” (Bioorg Med Chem Lett, 2019)

Key:
[1] = target: T1, Peroxisome proliferator-activated receptor gamma (Homo sapiens) (UniProt P37231); assay: Agonist activity at human PPARgamma at 1 uM relative to pioglitazone
T1 sequence (whole entry): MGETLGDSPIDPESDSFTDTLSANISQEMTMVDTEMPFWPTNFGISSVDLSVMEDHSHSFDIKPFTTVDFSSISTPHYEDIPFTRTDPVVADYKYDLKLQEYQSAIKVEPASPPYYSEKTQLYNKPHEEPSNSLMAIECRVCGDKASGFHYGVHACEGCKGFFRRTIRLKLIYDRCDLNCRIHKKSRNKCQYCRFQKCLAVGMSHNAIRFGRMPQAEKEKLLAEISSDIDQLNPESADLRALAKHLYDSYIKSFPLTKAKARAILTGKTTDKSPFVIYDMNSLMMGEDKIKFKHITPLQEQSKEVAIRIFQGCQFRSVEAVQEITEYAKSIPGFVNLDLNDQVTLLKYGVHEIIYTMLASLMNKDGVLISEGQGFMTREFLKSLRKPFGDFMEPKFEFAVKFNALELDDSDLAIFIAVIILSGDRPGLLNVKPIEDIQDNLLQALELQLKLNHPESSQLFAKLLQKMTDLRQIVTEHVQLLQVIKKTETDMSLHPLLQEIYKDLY

[2] = Stability in human liver microsomes assessed as parent compound remaining after 30 mins; format: ADME, Microsome; settings: read-out: Stability
[3] = Stability in mouse liver microsomes assessed as parent compound remaining after 30 mins; format: ADME, Microsome; settings: read-out: Stability
[4] = target: T2, Peroxisome proliferator-activated receptor gamma (Homo sapiens, UniProt P37231); assay: Agonist activity at human PPARgamma
T2 sequence (P37231 whole entry): T1 sequence (whole entry)

[5] = Stability in rat liver microsomes assessed as parent compound remaining after 30 mins; format: ADME, Microsome; settings: read-out: Stability
[6] = Stability in dog liver microsomes assessed as parent compound remaining after 30 mins; format: ADME, Canis lupus familiaris, Microsome; settings: read-out: Stability
[7] = target: T1, Peroxisome proliferator-activated receptor gamma (Homo sapiens); assay: Agonist activity at human PPARgamma at 1 uM relative to telmisartan
[8] = tested on: Mus musculus; assay: Antidiabetic activity in db/db mouse assessed as random blood glucose level at 20 mg/kg, po administered once daily for 13 days measured post last dose (reference value: 530 mg/dl); format: functional
[9] = Toxicity in db/db mouse assessed as body weight at 20 mg/kg, po administered once daily for 13 days (reference value: 33.5 g); format: organism-based; settings: in vivo, 312 h
[10] = target: T3, Type-1 angiotensin II receptor (Homo sapiens, UniProt P30556); assay: Antagonist activity at type-1 angiotensin 2 receptor (unknown origin) by calcium mobilizing assay; format: functional
T3 sequence (P30556 whole entry): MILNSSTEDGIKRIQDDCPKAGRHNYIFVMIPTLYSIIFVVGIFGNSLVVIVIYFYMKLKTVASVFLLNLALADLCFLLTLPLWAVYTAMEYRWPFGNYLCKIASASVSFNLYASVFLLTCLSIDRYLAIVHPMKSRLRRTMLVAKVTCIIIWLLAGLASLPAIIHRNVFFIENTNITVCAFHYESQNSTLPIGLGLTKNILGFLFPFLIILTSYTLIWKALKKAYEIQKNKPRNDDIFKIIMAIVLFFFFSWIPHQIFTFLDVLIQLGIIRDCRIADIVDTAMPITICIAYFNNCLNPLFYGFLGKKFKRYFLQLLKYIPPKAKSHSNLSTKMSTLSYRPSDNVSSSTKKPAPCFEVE

[11] = Drug level in mouse liver S9 fraction treated with 2-(2-butyl-4-isopropyl-6-oxo-1-((2'-(5-oxo-4,5-dihydro-1,2,4-oxadiazol-3-yl)biphenyl-4-yl)methyl)-1,6-dihydropyrimidin-5-yl)acetic acid; format: ADME, subcellular
[12] = Drug level in rat liver S9 fraction treated with 2-(2-butyl-4-isopropyl-6-oxo-1-((2'-(5-oxo-4,5-dihydro-1,2,4-oxadiazol-3-yl)biphenyl-4-yl)methyl)-1,6-dihydropyrimidin-5-yl)acetic acid; format: ADME, subcellular
[13] = Drug level in human liver S9 fraction treated with BR101549; format: ADME, subcellular
[14] = Drug level in human liver S9 fraction treated with 2-(2-butyl-4-isopropyl-6-oxo-1-((2'-(5-oxo-4,5-dihydro-1,2,4-oxadiazol-3-yl)biphenyl-4-yl)methyl)-1,6-dihydropyrimidin-5-yl)acetic acid; format: ADME, subcellular
[15] = Drug level in mouse liver S9 fraction treated with BR101549; format: ADME, subcellular
[16] = Drug level in rat liver S9 fraction treated with BR101549; format: ADME, subcellular
[17] = Drug metabolism in human liver S9 fraction assessed as acylglucuronide formation; format: ADME, subcellular
[18] = Drug metabolism in rat liver S9 fraction assessed as acylglucuronide formation; format: ADME, subcellular
[19] = Drug metabolism in mouse liver S9 fraction assessed as acylglucuronide formation; format: ADME, subcellular

| SMILES | max activation [1] [%] | remaining at 0.5 h [2] [%] | remaining at 0.5 h [3] [%] | EC50 [4] [µM] | other results |
| --- | --- | --- | --- | --- | --- |
| [2H]C([2H])(C(=O)OCC)c1c(C)nc(CCCC)n(Cc2ccc(-c3ccccc3-c3noc(=O)[nH]3)cc2)c1=O |  | 46.5 | 78.4 |  | remaining at 0.5 h [5]: 87.3%; remaining at 0.5 h [6]: 86.8% |
| CCCCc1nc(C)c(CC(=O)OCC)c(=O)n1Cc1ccc(-c2ccccc2-c2noc(=O)[nH]2)cc1 |  | 46.6 | 12.9 |  | fold change (FC) [7]: 0.93; fold change (FC) ([7]; tested as the 2H-labelled form): 0.82; remaining at 0.5 h [5]: 14.3%; remaining at 0.5 h [6]: 50.9% |
| CC#CCOC(=O)Cc1c(C)nc(CCCC)n(Cc2ccc(-c3ccccc3-c3noc(=O)[nH]3)cc2)c1=O | 99 | 32 | 18.3 | 2.53 |  |
| CCCCc1nc(C)c(CC(=O)OC2CC2)c(=O)n1Cc1ccc(-c2ccccc2-c2noc(=O)[nH]2)cc1 | 62 | 34.5 | 12.8 | 3.31 |  |
| CCCCc1nc(C(C)C)c(C(C)C(=O)OCC)c(=O)n1Cc1ccc(-c2ccccc2-c2noc(=O)[nH]2)cc1 (stereo unspecified) |  | 11 | 28 |  | fold change (FC) [7]: 1.3; remaining at 0.5 h [5]: 19.2%; remaining at 0.5 h [6]: 43.8% |
| CCCCc1nc(C)c(CC(=O)OC(C)C)c(=O)n1Cc1ccc(-c2ccccc2-c2noc(=O)[nH]2)cc1 | 114 | 17.5 | 4 | 1.66 |  |
| CCCCc1nc(C2CC2)c(CC(=O)OC)c(=O)n1Cc1ccc(-c2ccccc2-c2noc(=O)[nH]2)cc1 | 83 | 24.4 | 16.4 | 2.36 |  |
| CCc1ccc(CCOc2ccc(CC3SC(=O)NC3=O)cc2)nc1 (stereo unspecified) [PIOGLITAZONE] |  |  |  |  | Activity [8]: 213 mg/dL; Activity [9]: 32.3 g |
| CCCCc1nc(C(C)C)c(CC(=O)OC)c(=O)n1Cc1ccc(-c2ccccc2-c2noc(=O)[nH]2)cc1 | 96 | 10.5 | 9.4 | 2.62 |  |
| CCCCc1nc(C(C)C)c(CC(=S)N2CCCC2)c(=O)n1Cc1ccc(-c2ccccc2-c2noc(=O)[nH]2)cc1 | 66 |  |  | 3.1 | IC50 [10]: 0.0022 µM |
| CCCCc1nc(C(C)C)c(CC(=O)OCC(F)(F)F)c(=O)n1Cc1ccc(-c2ccccc2-c2noc(=O)[nH]2)cc1 | 65 |  |  | 2.78 |  |
| CCCCc1nc(C)c(CC(=O)OCC2CC2)c(=O)n1Cc1ccc(-c2ccccc2-c2noc(=O)[nH]2)cc1 | 101 | 20 | 13 | 1.81 |  |
| CCCCc1nc(C2CC2)c(CC(=O)OC(C)C)c(=O)n1Cc1ccc(-c2ccccc2-c2noc(=O)[nH]2)cc1 | 87 | 9.9 | 14 | 2.72 |  |
| CCCCc1nc(C(C)C)c(CC(=O)O[C@@H]2O[C@H](C(=O)O)[C@@H](O)[C@H](O)[C@H]2O)c(=O)n1Cc1ccc(-c2ccccc2-c2noc(=O)[nH]2)cc1 |  |  |  |  | Drug metabolism [11]: Metabolite_Detected; Drug metabolism [12]: Metabolite_Detected; Drug metabolism [13]: Metabolite_Notdetected; Drug metabolism [14]: Metabolite_Detected; Drug metabolism [15]: Metabolite_Notdetected; Drug metabolism [16]: Metabolite_Notdetected |
| CCCCc1nc(C(C)(C)C)c(CC(=O)OCC)c(=O)n1Cc1ccc(-c2ccccc2-c2noc(=O)[nH]2)cc1 |  | 8.2 | 14 |  | fold change (FC) [7]: < 1 |
| CCCCc1nc(C)c(CC(=O)OC)c(=O)n1Cc1ccc(-c2ccccc2-c2noc(=O)[nH]2)cc1 | 74 | 69.6 | 47.1 | 7.36 |  |
| CCCCc1nc(C(C)C)c(CC(=O)O)c(=O)n1Cc1ccc(-c2ccccc2-c2noc(=O)[nH]2)cc1 | 2 | 86.8 | 100 | 10.3 | Drug metabolism [17]: Metabolite_Detected; Drug metabolism [18]: Metabolite_Detected; Drug metabolism [19]: Metabolite_Detected |
| CCCCc1nc(C(C)C)c(CC(=O)OC(CC)CC)c(=O)n1Cc1ccc(-c2ccccc2-c2noc(=O)[nH]2)cc1 |  | 7.7 | 14.6 |  |  |
| CCCCOC(=O)Cc1c(C)nc(CCCC)n(Cc2ccc(-c3ccccc3-c3noc(=O)[nH]3)cc2)c1=O | 116 | 2.8 | 10.2 | 2.25 |  |

The remaining compounds from weak to strong by EC50 [4], led by results:

| max activation [1] [%] | remaining at 0.5 h [2] [%] | remaining at 0.5 h [3] [%] | EC50 [4] [µM] | SMILES | other results |
| --- | --- | --- | --- | --- | --- |
| 114 | 2.4 | 7.7 | 1.53 | CCCCc1nc(C)c(CC(=O)OCC(C)C)c(=O)n1Cc1ccc(-c2ccccc2-c2noc(=O)[nH]2)cc1 |  |
| 133 | 7.2 | 12.6 | 1.5 | CCCCc1nc(C(C)C)c(CC(=O)OCCC)c(=O)n1Cc1ccc(-c2ccccc2-c2noc(=O)[nH]2)cc1 |  |
| 89 | 10.3 | 11.4 | 1.36 | CCCCc1nc(C(C)C)c(CC(=O)OC2CC2)c(=O)n1Cc1ccc(-c2ccccc2-c2noc(=O)[nH]2)cc1 |  |
| 90 | 11.5 | 8.9 | 1.32 | CCCCc1nc(C)c(CC(=O)OCC2CCCCC2)c(=O)n1Cc1ccc(-c2ccccc2-c2noc(=O)[nH]2)cc1 |  |
| 128 | 8.8 | 13.7 | 1.23 | CCCCc1nc(C(C)C)c(CC(=O)OCC(C)C)c(=O)n1Cc1ccc(-c2ccccc2-c2noc(=O)[nH]2)cc1 |  |
| 54 | 10.6 | 19.7 | 1.09 | CCCCCOC(=O)Cc1c(C(C)C)nc(CCCC)n(Cc2ccc(-c3ccccc3-c3noc(=O)[nH]3)cc2)c1=O |  |
| 103 | 13.7 | 16.4 | 1.06 | CC#CCOC(=O)Cc1c(C(C)C)nc(CCCC)n(Cc2ccc(-c3ccccc3-c3noc(=O)[nH]3)cc2)c1=O |  |
| 98 | 3.9 | 10.7 | 1 | CCCCc1nc(C)c(CC(=O)OC2CCCCC2)c(=O)n1Cc1ccc(-c2ccccc2-c2noc(=O)[nH]2)cc1 |  |
| 73 | 7.1 | 21.6 | 1 | CCCCOC(=O)Cc1c(C(C)C)nc(CCCC)n(Cc2ccc(-c3ccccc3-c3noc(=O)[nH]3)cc2)c1=O |  |
| 88 | 13.3 | 14.6 | 0.73 | CCCCc1nc(C(C)C)c(CC(=O)OC2CCCCC2)c(=O)n1Cc1ccc(-c2ccccc2-c2noc(=O)[nH]2)cc1 |  |
